From PMC8941859, “The FDA-Approved Drug Cobicistat Synergizes with Remdesivir To Inhibit SARS-CoV-2 Replication In Vitro and Decreases Viral Titers and Disease Progression in Syrian Hamsters” (mBio, 2022)
Where “and” joins values, the source holds several entries; their conditions need not be identical. Equal values may be shown once. Read-outs that look alike come from different tables or passages of the source.

Key:
[1] = test system: Vero E6 cells transfected with the SARS-CoV-2 S-protein; test: Syncytium formation assay; type: cell-based, African green monkey; details: 1, 5, 10 μM; 24 h posttransfection
SARS-CoV-2 [2] = test: Replication-competent virus in supernatant (plaque assay); type: cell-based; details: Vero E6 cells, MOI 0.05, 2.5-10 μM, 24 h postinfection
SARS-CoV-2 [3] = test: microbe, parasite or virus in culture; type: cell-based
[4] = target: spike protein and human ACE2 (Severe acute respiratory syndrome coronavirus 2, UniProt P0DTC2); test: cell-based; parameters: species or system SARS-CoV-2; human; details: 1 h preincubation, luciferase after 24 h; read-out: IC50 of S-glycoprotein-mediated cell fusion
SARS-CoV-2 [5] = type: cell-based; details: 5 to 10 μM; MTT and crystal violet; Calu-3, T84, Vero E6
in vitro = type: cell-based; details: human; African green monkey
Experimental: Cell viability was evaluated by the MTT [3-(4,5-dimethylthiazol-2-yl)-2,5-diphenyl tetrazolium bromide] assay and by crystal violet staining as previously described ([76], [77]). Briefly, the MTT assay was conducted using the CellTiter 96 nonradioactive cell proliferation assay (MTT) (Promega; Madison, WI, USA). Cells were plated in a 96‐well plate at a concentration of 3 × 10^6 cells/mL in 100 μL of medium. The MTT solution (15 μL) was added to each well, and after 2 to 4 h, the reaction was stopped by the addition of 100 μL of 10% SDS. Absorbance values were acquired using an Infinite 200 PRO (Tecan, Männedorf, Switzerland) multimode plate reader at a 570-nm wavelength.
Data normality assumptions were tested by D’Agostino and Pearson normality test (for n > 3). Multiple-group comparisons were conducted by nonparametric Kruskal-Wallis test, followed by Dunn’s posttest, or by one-way or two-way analysis of variance (ANOVA) followed by Holm-Sidak or Dunnett posttests, respectively. Half-maximal inhibitory (IC50), effective (EC50), and cytotoxic (CC50) concentrations of the compounds were estimated by nonlinear regression after data normalization. […] Data analysis was conducted using GraphPad Prism v6 (GraphPad Software, San Diego, CA, USA). Synergy scores were calculated with the SynergyFinder web tool ([79]) using the Zero Interaction Potency (ZIP) model ([80]).

SARS-CoV-2 [6] = test: SARS-CoV-2-infected Syrian hamsters
3CLpro = 3CLpro (Severe acute respiratory syndrome coronavirus 2, UniProt P0DTD1); test: 3CLpro fluorescence resonance energy transfer (FRET) assay; type: biochemical, SARS-CoV-2; details: for FRET-determined EC50 (3CLpro): normalized to untreated control, nonlinear regression
Experimental: The activity of 3CLpro was measured by FRET assay (BPS Bioscience, San Diego, CA, USA) according to the manufacturer’s instructions and as previously described ([34]). […] Wells without drugs or without 3CLpro were used as positive control of 3CLpro activity and blank control, respectively. After a 30-min incubation, the 3CLpro substrate was added to each well and the plate was stored for 4 h in the dark. The fluorescence signal was acquired on an Infinite 200 PRO (Tecan, Männedorf, Switzerland) using an excitation wavelength of 360 nm and a detection wavelength of 460 nm. Relative 3CLpro was expressed as percentage of the positive control after subtraction of the blank.

Compound | Alveolar alterations: Alveolar edema (SARS-CoV-2 [6]; Day 3, single animal) | Alveolar alterations: Epithelial necrosis (SARS-CoV-2 [6]; Day 3, single animal) | Alveolar alterations: Type II hyperplasia (SARS-CoV-2 [6]; Day 3, single animal) | Pneumonia: Consolidated lung area (%) (SARS-CoV-2 [6]; Day 3, single animal) | Pneumonia: Inflammation score (SARS-CoV-2 [6]; Day 3, single animal) | Pneumonia: Lung area affected (%) (SARS-CoV-2 [6]; Day 3, single animal) | Vascular alterations: Endothelialitis (SARS-CoV-2 [6]; Day 3, single animal) | Vascular alterations: Perivascular edema (SARS-CoV-2 [6]; Day 3, single animal) | Vascular alterations: Perivascular lymphocytes (SARS-CoV-2 [6]; Day 3, single animal) | Alveolar alterations: Alveolar edema (SARS-CoV-2 [6]; Day 5, single animal) | Alveolar alterations: Epithelial necrosis (SARS-CoV-2 [6]; Day 5, single animal) | Alveolar alterations: Type II hyperplasia (SARS-CoV-2 [6]; Day 5, single animal) | Pneumonia: Consolidated lung area (%) (SARS-CoV-2 [6]; Day 5, single animal) | Pneumonia: Inflammation score (SARS-CoV-2 [6]; Day 5, single animal) | Pneumonia: Lung area affected (%) (SARS-CoV-2 [6]; Day 5, single animal) | Vascular alterations: Endothelialitis (SARS-CoV-2 [6]; Day 5, single animal) | Vascular alterations: Perivascular edema (SARS-CoV-2 [6]; Day 5, single animal) | Vascular alterations: Perivascular lymphocytes (SARS-CoV-2 [6]; Day 5, single animal) | FRET-determined EC50 (3CLpro) | EC50 (3CLpro) [µM] | other results
CC(C)c1nc(CN(C)C(=O)N[C@@H](CCN2CCOCC2)C(=O)N[C@H](CC[C@H](Cc2ccccc2)NC(=O)OCc2cncs2)Cc2ccccc2)cs1 [Cobicistat] | 2 and 0 | 1 and 0 and (1) | 1–2 and 0 | 20% and 0% and <5% | 2–3 and (1) and 1 | 30% and <5% and 5–10% | 2–3 and (1) and 1–2 | 1–2 and 0 | 1–2 and 0 | 3 and 2 and 2–3 | 2 and 1 | 2–3 and 3 and 1–2 | 50% and 30% and 35% | 3 and 2–3 | 80% and 70% and 50% | 2–3 and 3 | 2–3 and 2 | 2 and 1 | Could not be calculated | – | Syncytium formation [1]: decreased syncytium formation; Levels of replication-competent virus in supernatant (SARS-CoV-2 [2]): able to decrease the levels of replication-competent virus; Effect on intracellular and supernatant viral RNA (SARS-CoV-2 [3]; Calu-3 cells, time course, low-micromolar concentrations, qPCR N1 and N2 primers): dose-dependent inhibitory effect; IC50 (SARS-CoV-2 [3]; Severe acute respiratory syndrome coronavirus 2, Calu-3, Vero E6 and T84 cells, MOI 0.05 and 0.5, treated 2 h postinfection, 48 h, read-out: IC50 (viral RNA release in supernatant), range): 0.58 to 8.76 µM; IC50 [4]: 3.83 µM and 3.8 µM; Viability of infected cells (SARS-CoV-2 [5]): partially rescue viability of infected cells; CC50 at 48 h (in vitro): 38.7 to 53 µM; Tolerability of dosing regimen in vivo (SARS-CoV-2 [6]; 50 mg/kg): well tolerated; Infectious progeny in the lung (PFU, plaque assay) (SARS-CoV-2 [6]; cobicistat 50 mg/kg oral daily, remdesivir 15 mg/kg i.p. daily, days 3 and 5 p.i.): significant decrease; Effect on catalytic activity of 3CLpro (3CLpro; FRET assay, Fig. S3A): inactive
CC(C)CN(C[C@@H](O)[C@H](Cc1ccccc1)NC(=O)O[C@H]1CO[C@H]2OCC[C@H]21)S(=O)(=O)c1ccc(N)cc1 [Darunavir] | – | – | – | – | – | – | – | – | – | – | – | – | – | – | – | – | – | – | Could not be calculated | – | –
Cc1cccc(C)c1OCC(=O)N[C@@H](Cc1ccccc1)[C@@H](O)C[C@H](Cc1ccccc1)NC(=O)[C@H](C(C)C)N1CCCNC1=O [Lopinavir] | – | – | – | – | – | – | – | – | – | – | – | – | – | – | – | – | – | – | – | 219 | –
Cc1c(O)cccc1C(=O)N[C@@H](CSc1ccccc1)[C@H](O)CN1C[C@H]2CCCC[C@H]2C[C@H]1C(=O)NC(C)(C)C [Nelfinavir] | – | – | – | – | – | – | – | – | – | – | – | – | – | – | – | – | – | – | Could not be calculated | – | –
CCC(CC)COC(=O)[C@H](C)N[P@](=O)(OC[C@H]1O[C@@](C#N)(c2ccc3c(N)ncnn23)[C@H](O)[C@@H]1O)Oc1ccccc1 [Remdesivir, remdesivir] | 0 | (1) and 0 | 0 | 0% | (1) | 5% and <5% | 0 | (1) and 0 | 0 and (1) | 1 and 1–2 and 2 | 2 | 1 and 1–2 | 25% and 35% and 30% | 2–3 | 40% and 70% | 2–3 and 2 | (1) and 1 and 2 | 2 and 1–2 | – | – | IC50 (SARS-CoV-2 [3]; Severe acute respiratory syndrome coronavirus 2, Vero C1008, Vero E6 cells, MOI 0.5, 48 h, read-out: IC50 (viral RNA expression in supernatant)): 0.74 µM; IC50 (SARS-CoV-2 [3]; Severe acute respiratory syndrome coronavirus 2, T84 cells, MOI 0.5, 48 h, read-out: IC50 (viral RNA expression in supernatant)): 0.35 µM
CCC[C@@]1(CCc2ccccc2)CC(O)=C([C@H](CC)c2cccc(NS(=O)(=O)c3ccc(C(F)(F)F)cn3)c2)C(=O)O1 [Tipranavir] | – | – | – | – | – | – | – | – | – | – | – | – | – | – | – | – | – | – | – | 47 | –
